Source: article PMC10191551, “Safety, Tolerability, and Pharmacokinetics of Oral Ferric Maltol in Children With Iron Deficiency: Phase 1 Study” (JPGN Reports, 2021)

Key:
[1] = Phase 1 study: iron uptake (serum iron and TSAT) after oral ferric maltol; type: in vivo, children; conditions: 7.8, 16.6, 30 mg b.d.
Text: Serum iron and TSAT provided measures of iron uptake.

[2] = Phase 1 study: safety and tolerability (adverse events, vital signs, ECG, laboratory tests, compliance) of oral ferric maltol; conditions: for Patients With an AE: Any AE: safety population
Text: This phase 1, randomized, open-label, parallel-group pharmacokinetic study involved children seen as outpatients at 6 centers in the UK: Alder Hey Children’s NHS Foundation Trust; King’s College Hospital NHS Foundation Trust; University Hospitals of Leicester NHS Trust; Nottingham University Hospitals NHS Trust; Manchester University NHS Foundation Trust; and University College London Hospitals NHS Foundation Trust. […] Children aged 16 years or older and parents or guardians of children younger than 16 years provided written informed consent to participate before study initiation.
Children aged 10–17 years with confirmed iron deficiency at screening (defined as either ferritin <30 µg/L or ferritin <50 µg/L with transferrin saturation [TSAT] <20%) were eligible for inclusion in the study. Patients with or without anemia could be enrolled, provided hemoglobin was ≥8.5 g/dL at screening. Girls of childbearing potential had to agree to use adequate contraception during and until 4 weeks after the end of the study.
The study comprised a screening period followed by a 10-day randomized treatment period and a post-treatment safety follow-up. Children were randomized 1:1:1 (stratified by age [10–14 vs 15–17 years] and sex) to ferric maltol 7.8 mg, 16.6 mg, or 30 mg twice daily (b.d.) for 9 days and once in the morning of day 10. The first and last doses of ferric maltol were taken in the presence of the investigator. Children took each dose with a glass of water 1 hour before or 2 hours after a meal. Doses were based on daily elemental iron requirements for the broad range of body weights of participants likely to be enrolled, with the aim of finding a minimum effective dose in this age group. The 30 mg b.d. adult dosage was chosen as the highest exposure; dosages of 16.6 mg b.d. and 7.8 mg b.d. were chosen as approximately one-half and one-quarter of the adult dose, respectively, with the exact dose depending on the full fill of available capsule shell sizes.
The primary objectives were to assess iron uptake and ferric maltol pharmacokinetics. Serum iron and TSAT provided measures of iron uptake. In adults, dissociated maltol undergoes rapid glucuronidation and is cleared in urine as maltol glucuronide (36); therefore, in this study, plasma maltol glucuronide was measured to confirm the rate of clearance in children. The secondary objective was to assess the safety and tolerability of ferric maltol in terms of vital signs, AEs, concomitant medications, 12-lead electrocardiograms, and clinical laboratory blood tests.
Safety analyses were conducted in all patients who received at least 1 dose of the study medication and had at least 1 subsequent visit (the safety population). […] Clinically significant changes from baseline in vital signs, physical examination, and routine clinical laboratory abnormalities were also recorded.

Cc1occc(=O)c1[O-].Cc1occc(=O)c1[O-].Cc1occc(=O)c1[O-].[Fe+3] [Ferric maltol]
Dose dependence of changes in serum iron concentrations [1]: not dose-dependent
Iron uptake (serum iron and TSAT) ([1]; days 1 and 10, ITT population): increased iron uptake
Patients With an AE: Any SAE ([2]; 7.8 mg b.d. (n = 12)): 0 (0.0) n (%)
Patients With an AE: Any TEAE ([2]; 7.8 mg b.d. (n = 12)): 7 (58.3) n (%)
Patients With an AE: TEAE leading to study discontinuation ([2]; 7.8 mg b.d. (n = 12)): 0 (0.0) n (%)
Patients With an AE: TEAE related to study drug ([2]; 7.8 mg b.d. (n = 12)): 3 (25.0) n (%)
Patients with a TEAE: Abdominal distension ([2]; 7.8 mg b.d. (n = 12)): 0 (0.0) n (%)
Patients with a TEAE: Abdominal pain ([2]; 7.8 mg b.d. (n = 12)): 0 (0.0) n (%)
Patients with a TEAE: Anal incontinence ([2]; 7.8 mg b.d. (n = 12)): 0 (0.0) n (%)
Patients with a TEAE: Cellulitis ([2]; 7.8 mg b.d. (n = 12)): 1 (8.3) n (%)
Patients with a TEAE: Constipation ([2]; 7.8 mg b.d. (n = 12)): 0 (0.0) n (%)
Patients with a TEAE: Cough ([2]; 7.8 mg b.d. (n = 12)): 1 (8.3) n (%)
Patients with a TEAE: Diarrhea ([2]; 7.8 mg b.d. (n = 12)): 2 (16.7) n (%)
Patients with a TEAE: Dizziness ([2]; 7.8 mg b.d. (n = 12)): 0 (0.0) n (%)
Patients with a TEAE: Dyspepsia ([2]; 7.8 mg b.d. (n = 12)): 0 (0.0) n (%)
Patients with a TEAE: Dyspnea ([2]; 7.8 mg b.d. (n = 12)): 1 (8.3) n (%)
Patients with a TEAE: Fatigue ([2]; 7.8 mg b.d. (n = 12)): 1 (8.3) n (%)
Patients with a TEAE: Nausea ([2]; 7.8 mg b.d. (n = 12)): 1 (8.3) n (%)
Patients with a TEAE: Nevus hemorrhage ([2]; 7.8 mg b.d. (n = 12)): 1 (8.3) n (%)
Patients with a TEAE: Palpitations ([2]; 7.8 mg b.d. (n = 12)): 1 (8.3) n (%)
Patients with a TEAE: Papule ([2]; 7.8 mg b.d. (n = 12)): 0 (0.0) n (%)
Patients with a TEAE: Pyrexia ([2]; 7.8 mg b.d. (n = 12)): 0 (0.0) n (%)
Patients with a TEAE: Skin abrasion ([2]; 7.8 mg b.d. (n = 12)): 0 (0.0) n (%)
Patients with a TEAE: Sneezing ([2]; 7.8 mg b.d. (n = 12)): 1 (8.3) n (%)
Patients with a TEAE: Tonsillitis ([2]; 7.8 mg b.d. (n = 12)): 0 (0.0) n (%)
Patients with a TEAE: Vomiting ([2]; 7.8 mg b.d. (n = 12)): 1 (8.3) n (%)
TEAEs by system organ class: Cardiac disorders ([2]; 7.8 mg b.d. (n = 12)): 1 (8.3) n (%)
TEAEs by system organ class: Gastrointestinal disorders ([2]; 7.8 mg b.d. (n = 12)): 4 (33.3) n (%)
TEAEs by system organ class: General disorders and administration-site conditions ([2]; 7.8 mg b.d. (n = 12)): 1 (8.3) n (%)
TEAEs by system organ class: Injury, poisoning, and procedural complications ([2]; 7.8 mg b.d. (n = 12)): 0 (0.0) n (%)
TEAEs by system organ class: Neoplasms benign, malignant, and unspecified ([2]; 7.8 mg b.d. (n = 12)): 1 (8.3) n (%)
TEAEs by system organ class: Nervous system disorders ([2]; 7.8 mg b.d. (n = 12)): 1 (8.3) n (%)
TEAEs by system organ class: Respiratory, thoracic, and mediastinal disorders ([2]; 7.8 mg b.d. (n = 12)): 3 (25.0) n (%)
TEAEs by system organ class: Skin and subcutaneous-tissue disorders ([2]; 7.8 mg b.d. (n = 12)): 1 (8.3) n (%)
Patients With an AE: Any AE ([2]; 7.8 mg b.d. (n = 12)): 7 (58.3) n (%)
Patients With an AE: Any SAE ([2]; 16.6 mg b.d. (n = 13)): 0 (0.0) n (%)
Patients With an AE: Any TEAE ([2]; 16.6 mg b.d. (n = 13)): 6 (46.2) n (%)
Patients With an AE: TEAE leading to study discontinuation ([2]; 16.6 mg b.d. (n = 13)): 1 (7.7) n (%)
Patients With an AE: TEAE related to study drug ([2]; 16.6 mg b.d. (n = 13)): 1 (7.7) n (%)
Patients with a TEAE: Abdominal distension ([2]; 16.6 mg b.d. (n = 13)): 0 (0.0) n (%)
Patients with a TEAE: Abdominal pain ([2]; 16.6 mg b.d. (n = 13)): 0 (0.0) n (%)
Patients with a TEAE: Anal incontinence ([2]; 16.6 mg b.d. (n = 13)): 0 (0.0) n (%)
Patients with a TEAE: Cellulitis ([2]; 16.6 mg b.d. (n = 13)): 0 (0.0) n (%)
Patients with a TEAE: Constipation ([2]; 16.6 mg b.d. (n = 13)): 0 (0.0) n (%)
Patients with a TEAE: Cough ([2]; 16.6 mg b.d. (n = 13)): 0 (0.0) n (%)
Patients with a TEAE: Diarrhea ([2]; 16.6 mg b.d. (n = 13)): 0 (0.0) n (%)
Patients with a TEAE: Dizziness ([2]; 16.6 mg b.d. (n = 13)): 1 (7.7) n (%)
Patients with a TEAE: Dyspepsia ([2]; 16.6 mg b.d. (n = 13)): 0 (0.0) n (%)
Patients with a TEAE: Dyspnea ([2]; 16.6 mg b.d. (n = 13)): 0 (0.0) n (%)
Patients with a TEAE: Fatigue ([2]; 16.6 mg b.d. (n = 13)): 1 (7.7) n (%)
Patients with a TEAE: Nausea ([2]; 16.6 mg b.d. (n = 13)): 0 (0.0) n (%)
Patients with a TEAE: Nevus hemorrhage ([2]; 16.6 mg b.d. (n = 13)): 0 (0.0) n (%)
Patients with a TEAE: Palpitations ([2]; 16.6 mg b.d. (n = 13)): 0 (0.0) n (%)
Patients with a TEAE: Papule ([2]; 16.6 mg b.d. (n = 13)): 0 (0.0) n (%)
Patients with a TEAE: Pyrexia ([2]; 16.6 mg b.d. (n = 13)): 0 (0.0) n (%)
Patients with a TEAE: Skin abrasion ([2]; 16.6 mg b.d. (n = 13)): 1 (7.7) n (%)
Patients with a TEAE: Sneezing ([2]; 16.6 mg b.d. (n = 13)): 0 (0.0) n (%)
Patients with a TEAE: Tonsillitis ([2]; 16.6 mg b.d. (n = 13)): 1 (7.7) n (%)
Patients with a TEAE: Vomiting ([2]; 16.6 mg b.d. (n = 13)): 1 (7.7) n (%)
TEAEs by system organ class: Cardiac disorders ([2]; 16.6 mg b.d. (n = 13)): 0 (0.0) n (%)
TEAEs by system organ class: Gastrointestinal disorders ([2]; 16.6 mg b.d. (n = 13)): 2 (15.4) n (%)
TEAEs by system organ class: General disorders and administration-site conditions ([2]; 16.6 mg b.d. (n = 13)): 2 (15.4) n (%)
TEAEs by system organ class: Injury, poisoning, and procedural complications ([2]; 16.6 mg b.d. (n = 13)): 1 (7.7) n (%)
TEAEs by system organ class: Neoplasms benign, malignant, and unspecified ([2]; 16.6 mg b.d. (n = 13)): 0 (0.0) n (%)
TEAEs by system organ class: Nervous system disorders ([2]; 16.6 mg b.d. (n = 13)): 3 (23.1) n (%)
TEAEs by system organ class: Respiratory, thoracic, and mediastinal disorders ([2]; 16.6 mg b.d. (n = 13)): 0 (0.0) n (%)
TEAEs by system organ class: Skin and subcutaneous-tissue disorders ([2]; 16.6 mg b.d. (n = 13)): 0 (0.0) n (%)
Patients With an AE: Any AE ([2]; 16.6 mg b.d. (n = 13)): 7 (53.8) n (%)
Children who discontinued the study early because of a TEAE ([2]; 16.6 mg group, moderate tonsillitis, not related to study drug): 1
Patients With an AE: Any SAE ([2]; 30 mg b.d. (n = 12)): 0 (0.0) n (%)
Patients With an AE: Any TEAE ([2]; 30 mg b.d. (n = 12)): 7 (58.3) n (%)
Patients With an AE: TEAE leading to study discontinuation ([2]; 30 mg b.d. (n = 12)): 0 (0.0) n (%)
Patients With an AE: TEAE related to study drug ([2]; 30 mg b.d. (n = 12)): 5 (41.7) n (%)
Patients with a TEAE: Abdominal distension ([2]; 30 mg b.d. (n = 12)): 1 (8.3) n (%)
Patients with a TEAE: Abdominal pain ([2]; 30 mg b.d. (n = 12)): 1 (8.3) n (%)
Patients with a TEAE: Anal incontinence ([2]; 30 mg b.d. (n = 12)): 1 (8.3) n (%)
Patients with a TEAE: Cellulitis ([2]; 30 mg b.d. (n = 12)): 0 (0.0) n (%)
Patients with a TEAE: Constipation ([2]; 30 mg b.d. (n = 12)): 1 (8.3) n (%)
Patients with a TEAE: Cough ([2]; 30 mg b.d. (n = 12)): 1 (8.3) n (%)
Patients with a TEAE: Diarrhea ([2]; 30 mg b.d. (n = 12)): 1 (8.3) n (%)
Patients with a TEAE: Dizziness ([2]; 30 mg b.d. (n = 12)): 2 (16.7) n (%)
Patients with a TEAE: Dyspepsia ([2]; 30 mg b.d. (n = 12)): 1 (8.3) n (%)
Patients with a TEAE: Dyspnea ([2]; 30 mg b.d. (n = 12)): 0 (0.0) n (%)
Patients with a TEAE: Fatigue ([2]; 30 mg b.d. (n = 12)): 2 (16.7) n (%)
Patients with a TEAE: Nausea ([2]; 30 mg b.d. (n = 12)): 1 (8.3) n (%)
Patients with a TEAE: Nevus hemorrhage ([2]; 30 mg b.d. (n = 12)): 0 (0.0) n (%)
Patients with a TEAE: Palpitations ([2]; 30 mg b.d. (n = 12)): 0 (0.0) n (%)
Patients with a TEAE: Papule ([2]; 30 mg b.d. (n = 12)): 1 (8.3) n (%)
Patients with a TEAE: Pyrexia ([2]; 30 mg b.d. (n = 12)): 1 (8.3) n (%)
Patients with a TEAE: Skin abrasion ([2]; 30 mg b.d. (n = 12)): 0 (0.0) n (%)
